Data set [1] in a line: clinical. Particulars: human, in vivo, iv, 5 mg/kg.
Description: Elimination half life in human at 5 mg/kg, iv
A short description of data set [2]: Inhibition of Hepatitis C virus NS5B RNA dependent RNA polymerase. The arrangement: species or system Hepacivirus hominis.
The subject of data set [3] is Enterovirus. Nature of the data set: Antiviral activity against Enterovirus infected in human H1-HeLa cells incubated for 3 days by crystal violet staining based plaque counting analysis. The class given is functional, organism-based. Particulars: 72 h.
Data set [4] deals with rhinovirus B14. As to the kind of experiment: Antiviral activity against human Rhinovirus 14 infected in H1-HeLa cells incubated for 3 days by crystal-violet staining based analysis. The class given is functional, organism-based. The settings on record: Rhinovirus B, 72 h.
The target of data set [5] is Dihydroorotate dehydrogenase (quinone), mitochondrial (Homo sapiens, UniProt Q02127). Nature of the data set: Inhibition of DHOH (unknown origin).
Chain of Dihydroorotate dehydrogenase (quinone), mitochondrial (Q02127 whole entry): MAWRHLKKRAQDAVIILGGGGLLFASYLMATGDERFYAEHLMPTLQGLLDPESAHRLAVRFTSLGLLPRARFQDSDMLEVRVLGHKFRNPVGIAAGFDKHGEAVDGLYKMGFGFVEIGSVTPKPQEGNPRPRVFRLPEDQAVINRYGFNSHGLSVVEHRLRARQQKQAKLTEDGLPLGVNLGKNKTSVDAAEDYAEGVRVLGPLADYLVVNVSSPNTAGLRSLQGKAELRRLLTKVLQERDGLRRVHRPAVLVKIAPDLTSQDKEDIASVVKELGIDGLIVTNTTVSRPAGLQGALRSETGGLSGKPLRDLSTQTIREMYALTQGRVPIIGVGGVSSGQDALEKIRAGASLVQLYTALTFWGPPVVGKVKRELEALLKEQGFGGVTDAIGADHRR
The nature of data set [6]: Elimination half life in human. The class given is ADME. Particulars: read-out: beta t1/2 (converted).
Data set [7] can be described thus: Inhibition of Influenza A virus RNA-dependent RNA polymerase.
Data set [8] deals with Influenza A virus. As to the kind of experiment: Anti-influenza activity against Influenza A virus infected in MDCK cells assessed as reduction in virus-induced cytopathic effect incubated for 48 hrs by CCK-8 assay. The class given is functional, organism-based.
Data set [9] relates to Human alphaherpesvirus 1. Nature of the data set: Antiviral activity against HSV 1 infected in African green monkey Vero cells assessed as reduction in plaque formation incubated for 36 hrs by crystal violet staining based assay. The class given is functional, organism-based. The settings on record: Human alphaherpesvirus 1, Vero.

Take `CCC(CC)COC(=O)[C@H](C)N[P@](=O)(OC[C@H]1O[C@@](C#N)(c2ccc3c(N)ncnn23)[C@H](O)[C@@H]1O)Oc1ccccc1`: the half-life in data set [1] was 0.48 h.

As for `C[C@@]1(O)[C@H](O)[C@@H](CO)O[C@H]1n1ccc2c(N)ncnc21` [BETA-2'-C-METHYL-7-DEAZA-ADENOSINE], half-maximal inhibition in data set [2] (IC50) was put at 5 µM.

Take `COc1ccc(OCCCCCCn2ccnc2)c(Cl)c1`: the EC50 in data set [3] and in data set [4] was 10 µM each time. In [5], `CN(/N=C/c1ccccc1C(=O)O)c1nc(-c2ccccc2Cl)cs1` displayed an IC50 of 0.0075 µM. On to `N#C[C@@]1(c2ccc3c(N)ncnn23)O[C@H](COP(=O)(O)OP(=O)(O)OP(=O)(O)O)[C@@H](O)[C@H]1O` [RDV-TP], for which the half-life in data set [6] was 26.6 h. In turn, `NC(=O)c1nc(F)cn([C@@H]2O[C@H](COP(=O)(O)OP(=O)(O)OP(=O)(O)O)[C@@H](O)[C@H]2O)c1=O` came in with an IC50 in [7] of 0.341 µM. As to `O=[N+]([O-])c1ccc(CNc2ccc3ncsc3c2)cc1`, in data set [8], the IC50 turned out to be 3.36 µM. In the case of `C=CCNC1=C2C[C@@H](C)C[C@H](OC)[C@H](O)[C@@H](C)/C=C(\C)[C@H](OC(N)=O)[C@@H](OC)/C=C/C=C(\C)C(=O)NC(=CC1=O)C2=O`, in data set [9], the IC50 was 0.0078 µM.

Source of the values: ChEMBL document CHEMBL5550131, “Medicinal chemistry strategies toward broad-spectrum antiviral agents to prevent next pandemics” (Eur J Med Chem, 2024).
